# Reference: patent US11046716B2, “Beta-lactamase inhibitors” (priority 2015, dated 2021)
# pIC50: −log10 of the molar value.
# Legend:
# KPC-2 = biological target: T1, KPC-2 (Klebsiella pneumoniae, UniProt Q9F663); experiment: β-lactamase enzyme inhibition assay, KPC-2 (imipenem substrate); type: biochemical; conditions: Class A; imipenem substrate, 300 nm; read-out: KPC-2
# T1 construct: made in house; host or cells: E. coli BL21(DE3)
# Procedure, shortened: (§1)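 Untagged enzyme from E. coli BL21(DE3), purified by Capto S then Superdex 75; 15 min 37 °C preincubation with inhibitor; KPC-2 read with imipenem at 300 nm, SHV-5 with cefotaxime at 260 nm, OXA-1 with nitrocefin 100 μM final at 486 nm; 10 min kinetic read; IC50 vs uninhibited wells.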
# VIM-2 = biological target: T2, VIM-2 (Escherichia coli, UniProt Q5U7L7); experiment: β-lactamase enzyme inhibition assay, VIM-2 (nitrocefin substrate); type: biochemical; conditions: Class B; nitrocefin substrate, 486 nm; read-out: VIM-2
# T2 construct: made in house; host or cells: E. coli BL21(DE3)
# Procedure, shortened: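 Enzyme + inhibitor, 37 °C, 15 min; nitrocefin 100 μM final; A486 read for 10 min. % inhibition vs no-inhibitor wells per concentration; IC50 = concentration halving initial hydrolysis rate.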
# SHV-5 = biological target: T3, SHV-5 (Klebsiella pneumoniae, UniProt P0A3M1); experiment: β-lactamase enzyme inhibition assay, SHV-5 (cefotaxime substrate); type: biochemical
# T3 construct: made in house; host or cells: E. coli BL21(DE3)
# T3 sequence (P0A3M1 22-286): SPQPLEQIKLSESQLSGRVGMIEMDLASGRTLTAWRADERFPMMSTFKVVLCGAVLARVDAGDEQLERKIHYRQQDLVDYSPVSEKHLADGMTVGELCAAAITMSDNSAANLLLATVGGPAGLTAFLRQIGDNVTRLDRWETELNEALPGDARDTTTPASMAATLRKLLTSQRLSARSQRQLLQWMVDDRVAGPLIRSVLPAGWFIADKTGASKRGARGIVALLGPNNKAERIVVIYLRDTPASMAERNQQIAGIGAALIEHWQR
# Procedure, shortened: as §1
# [1] = test system: K. pneumoniae expressing the Class A carbapenemase KPC-2; experiment: Broth microdilution MIC assay with meropenem, K. pneumoniae KPC-2; type: cell-based; conditions: Fixed Mero (meropenem) 4 μg/mL; K. p. 156319 KPC-3
# Procedure, shortened: (§2)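 CAMHB; cpd 2-fold serial dilution, 16–0.125 μg/mL final; β-lactam static 4 μg/ml; CLSI inoculation; 16–20 h, 37° C; MIC read by eye.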
# OXA-48 = OXA-48 (UniProt Q6XEC0); experiment: β-lactamase enzyme inhibition assay, Class D oxacillinase; type: biochemical; conditions: read-out: OXA-48
# [2] = test system: E. coli expressing the Class A Extended Spectrum Beta-Lactamase (ESBL) CTX-M-15; experiment: Broth microdilution MIC assay with ceftazidime, E. coli CTX-M-15; type: cell-based; conditions: Fixed CAZ (ceftazidime) 4 μg/mL; E. coli ESBL4 CTX-M-15
# Procedure, shortened: as §2
# [3] = test system: P. aeruginosa expressing the Class B carbapenemase VIM-2; experiment: Broth microdilution MIC assay with meropenem, P. aeruginosa VIM-2; type: cell-based; conditions: Fixed Mero (meropenem) 4 μg/mL; P. aerug. 2775 VIM-2
# Procedure, shortened: as §2
# [4] = test system: K. pneumoniae expressing the class A carbapenemase KPC-2 and the class B carbapenemase VIM-4; experiment: Broth microdilution MIC assay with meropenem, K. pneumoniae KPC-2 and VIM-4; type: cell-based; conditions: Fixed Mero (meropenem) 4 μg/mL; K. p. A-1797 KPC-2 VIM-4
# Procedure, shortened: as §2
# AmpC = biological target: T4, AmpC (Enterobacter cloacae, UniProt P05364); experiment: β-lactamase enzyme inhibition assay, p99 AmpC (nitrocefin substrate); type: biochemical
# T4 construct: made in house; host or cells: E. coli BL21(DE3)
# T4 sequence (P05364 21-381): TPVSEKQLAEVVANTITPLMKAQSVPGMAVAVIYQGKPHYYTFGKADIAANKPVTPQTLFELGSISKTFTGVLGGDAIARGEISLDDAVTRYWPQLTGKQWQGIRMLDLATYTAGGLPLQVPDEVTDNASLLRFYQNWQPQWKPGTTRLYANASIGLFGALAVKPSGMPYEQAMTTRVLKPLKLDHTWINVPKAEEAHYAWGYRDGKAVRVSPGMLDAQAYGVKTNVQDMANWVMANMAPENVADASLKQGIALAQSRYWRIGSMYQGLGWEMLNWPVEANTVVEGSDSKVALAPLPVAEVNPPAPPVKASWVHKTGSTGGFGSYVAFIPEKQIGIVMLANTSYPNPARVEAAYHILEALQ
# Procedure, shortened: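 Untagged enzyme from E. coli BL21(DE3), purified by Capto S then Superdex 75; 15 min 37 °C preincubation with inhibitor; 10 min kinetic read; IC50 vs uninhibited wells.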
# [5] = test system: E. cloacae expressing the Class C P99; experiment: Broth microdilution MIC assay with ceftazidime, E. cloacae P99; type: cell-based; conditions: Fixed CAZ (ceftazidime) 4 μg/mL; E. cl. 144200 p99 AmpC
# Procedure, shortened: as §2
# [6] = test system: K. pneumoniae producing the Class D carbapenemase OXA-48; experiment: Broth microdilution MIC assay with meropenem, K. pneumoniae OXA-48; type: cell-based; conditions: Fixed Mero (meropenem) 4 μg/mL; K. p. 11978 OXA-48
# Procedure, shortened: as §2
# T1 sequence (Q9F663 25-293, looked up): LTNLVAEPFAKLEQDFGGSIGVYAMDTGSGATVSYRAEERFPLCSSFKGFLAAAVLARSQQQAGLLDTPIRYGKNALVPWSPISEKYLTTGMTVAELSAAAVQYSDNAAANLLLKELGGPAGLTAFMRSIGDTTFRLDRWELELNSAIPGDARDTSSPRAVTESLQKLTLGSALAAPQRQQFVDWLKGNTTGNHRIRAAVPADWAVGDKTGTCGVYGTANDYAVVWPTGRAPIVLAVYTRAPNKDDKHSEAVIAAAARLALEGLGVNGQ
SMILES,pIC50 (KPC-2),pIC50 (VIM-2),pIC50 (SHV-5),MIC (μg/mL) of Exemplary Compounds in presence of fixed β-lactams: K. p. 156319 KPC-3 [1],pIC50 (OXA-48),MIC (μg/mL) of Exemplary Compounds in presence of fixed β-lactams: E. coli ESBL4 CTX-M-15 [2],MIC (μg/mL) of Exemplary Compounds in presence of fixed β-lactams: P. aerug. 2775 VIM-2 [3],MIC (μg/mL) of Exemplary Compounds in presence of fixed β-lactams: K. p. A-1797 KPC-2 VIM-4 [4],pIC50 (AmpC),MIC (μg/mL) of Exemplary Compounds in presence of fixed β-lactams: E. cl. 144200 p99 AmpC [5],MIC (μg/mL) of Exemplary Compounds in presence of fixed β-lactams: K. p. 11978 OXA-48 [6]
"NCc1nnn(CC(=O)N[C@H]2Cc3cccc(C(=O)O)c3OB2O)c1I [Example 105, (R)-3-(2-(4-(aminomethyl)-5-iodo-1H-1,2,3-triazol-1-yl)acetamido)-2-hydroxy-3,4-dihydro-2H-benzo[e][1,2]oxaborinine-8-carboxylic acid]",> 7.00,> 7.00,6.00 to 7.00,C (C represents an MIC of <1 μg/mL),> 7.00,C (C represents an MIC of <1 μg/mL),C (C represents an MIC of <1 μg/mL),C (C represents an MIC of <1 μg/mL),> 7.00,C (C represents an MIC of <1 μg/mL),C (C represents an MIC of <1 μg/mL)
"O=C(Cn1cc(C2CCNC2)nn1)N[C@H]1Cc2cccc(C(=O)O)c2OB1O (stereo partly drawn) [Example 89, (3R)-2-hydroxy-3-(2-(4-(pyrrolidin-3-yl)-1H-1,2,3-triazol-1-yl)acetamido)-3,4-dihydro-2H-benzo[e][1,2]oxaborinine-8-carboxylic acid]",6.00 to 7.00,6.00 to 7.00,6.00 to 7.00,C (C represents an MIC of <1 μg/mL),5.00 to 6.00,C (C represents an MIC of <1 μg/mL),C (C represents an MIC of <1 μg/mL),B (B represents an MIC between 1 and 16 μg/mL inclusive),> 7.00,C (C represents an MIC of <1 μg/mL),B (B represents an MIC between 1 and 16 μg/mL inclusive)
"NCc1nnn(CC(=O)N[C@H]2Cc3cccc(C(=O)O)c3OB2O)c1Cl [Example 107, (R)-3-(2-(4-(aminomethyl)-5-chloro-1H-1,2,3-triazol-1-yl)acetamido)-2-hydroxy-3,4-dihydro-2H-benzo[e][1,2]oxaborinine-8-carboxylic acid]",> 7.00,> 7.00,6.00 to 7.00,C (C represents an MIC of <1 μg/mL),> 7.00,C (C represents an MIC of <1 μg/mL),C (C represents an MIC of <1 μg/mL),C (C represents an MIC of <1 μg/mL),> 7.00,B (B represents an MIC between 1 and 16 μg/mL inclusive),B (B represents an MIC between 1 and 16 μg/mL inclusive)
"O=C(Cn1cc([N+](=O)[O-])cn1)N[C@H]1Cc2cccc(C(=O)O)c2OB1O [Example 56, (R)-2-hydroxy-3-(2-(4-nitro-1H-pyrazol-1-yl)acetamido)-3,4-dihydro-2H-benzo[e][1,2]oxaborinine-8-carboxylic acid]",> 7.00,6.00 to 7.00,> 7.00,B (B represents an MIC between 1 and 16 μg/mL inclusive),6.00 to 7.00,C (C represents an MIC of <1 μg/mL),B (B represents an MIC between 1 and 16 μg/mL inclusive),B (B represents an MIC between 1 and 16 μg/mL inclusive),> 7.00,C (C represents an MIC of <1 μg/mL),B (B represents an MIC between 1 and 16 μg/mL inclusive)
"O=C(Cn1nnc(CN2CCOCC2)c1CN1CCOCC1)N[C@H]1Cc2cccc(C(=O)O)c2OB1O [Example 32, (R)-3-(2-(4,5-bis(morpholinomethyl)-1H-1,2,3-triazol-1-yl)acetamido)-2-hydroxy-3,4-dihydro-2H-benzo[e][1,2]oxaborinine-8-carboxylic acid]",> 7.00,6.00 to 7.00,> 7.00,B (B represents an MIC between 1 and 16 μg/mL inclusive),6.00 to 7.00,B (B represents an MIC between 1 and 16 μg/mL inclusive),B (B represents an MIC between 1 and 16 μg/mL inclusive),A (A represents an MIC>16 μg/mL),> 7.00,A (A represents an MIC>16 μg/mL),A (A represents an MIC>16 μg/mL)
"NCCn1nnnc1CC(=O)N[C@H]1Cc2cccc(C(=O)O)c2OB1O [Example 41, (R)-3-(2-(1-(2-aminoethyl)-1H-tetrazol-5-yl)acetamido)-2-hydroxy-3,4-dihydro-2H-benzo[e][1,2]oxaborinine-8-carboxylic acid]",> 7.00,> 7.00,> 7.00,C (C represents an MIC of <1 μg/mL),6.00 to 7.00,C (C represents an MIC of <1 μg/mL),C (C represents an MIC of <1 μg/mL),C (C represents an MIC of <1 μg/mL),> 7.00,C (C represents an MIC of <1 μg/mL),B (B represents an MIC between 1 and 16 μg/mL inclusive)
"NCc1cnn(CC(=O)N[C@H]2Cc3cccc(C(=O)O)c3OB2O)c1 [Example 68, (R)-3-(2-(4-(aminomethyl)-1H-pyrazol-1-yl)acetamido)-2-hydroxy-3,4-dihydro-2H-benzo[e][1,2]oxaborinine-8-carboxylic acid]",> 7.00,6.00 to 7.00,6.00 to 7.00,C (C represents an MIC of <1 μg/mL),6.00 to 7.00,C (C represents an MIC of <1 μg/mL),C (C represents an MIC of <1 μg/mL),B (B represents an MIC between 1 and 16 μg/mL inclusive),> 7.00,C (C represents an MIC of <1 μg/mL),B (B represents an MIC between 1 and 16 μg/mL inclusive)
"NCCc1nnnn1CC(=O)N[C@H]1Cc2cccc(C(=O)O)c2OB1O [Example 102, (R)-3-(2-(5-(2-aminoethyl)-1H-tetrazol-1-yl)acetamido)-2-hydroxy-3,4-dihydro-2H-benzo[e][1,2]oxaborinine-8-carboxylic acid]",> 7.00,> 7.00,6.00 to 7.00,B (B represents an MIC between 1 and 16 μg/mL inclusive),6.00 to 7.00,C (C represents an MIC of <1 μg/mL),C (C represents an MIC of <1 μg/mL),B (B represents an MIC between 1 and 16 μg/mL inclusive),> 7.00,C (C represents an MIC of <1 μg/mL),B (B represents an MIC between 1 and 16 μg/mL inclusive)
